# In patent US6514949B1, “Method compositions for treating the inflammatory response” (University of Virginia Patent Foundation, priority 1994, dated 2003):
# Tests used:
# [1] = test system: TNFα-stimulated PMN; assay: TNF-stimulated PMN adherence to a fibrinogen-coated surface; format: cell-based, human
# Procedure: PMN adherence to fibrinogen was measured as follows as adapted from Hanlon, J. Leukocyte Biol., 50, 43 (1991). Twenty-four well flat-bottomed tissue culture plates were incubated (37° C.) overnight with 0.5 ml of fibrinogen (5 mg/ml) dissolved in 1.5% NaHCO3. The plates were emptied and each well washed 2× with 1 ml of normal saline. The wells were then filled with 1 ml of HBSS-0.1% human serum albumin containing PMN (1×10^6/ml) with and without rhTNFα (1 U/ml), adenosine deaminase (ADA) (1 U/ML), WRC-0474[SHA 211] (10 nM), CGS21680 (30 nM), adenosine (100 nM) and rolipram (100 nM). The plates were incubated for 90 minutes at 37° C. in 5% CO2. Following incubation the tissue culture wells were washed free of non-adherent cells with normal saline. The adherent monolayer of PMN was lysed with 0.1% triton-X, the amount of lactic dehydrogenase (LDH) released from the monolayer assayed (LDH kit, Sigma Co., St. Louis, Mo.), and compared to a standard curve relating the LDH content to PMN numbers.
# [2] = test system: TNFα-stimulated adherent human neutrophils; assay: TNFα-stimulated superoxide release of PMN adherent to fibrinogen coated surface; format: cell-based; conditions: for superoxide release of TNFα-stimulated adherent PMN: 300 nM combined with rolipram (100 nM), p<0.05, FIG. 5
# Procedure: TNFα-stimulated superoxide release of PMN adherent to a matrix protein (fibrinogen) coated surface. Human PMN (1×10^6/ml) from Ficoll-Hypaque separation were incubated for 90 minutes in 1 ml of Hanks balanced salt solution containing 0.1% human serum albumin, cytochrome c (120 μM), and catalase (0.062 mg/ml) in the presence and absence of rhTNF (1 U/ml), WRC-0474[SHA 211] (10 nM) and rolipram (100 nM) in a tissue culture well which had been coated overnight with human fibrinogen. SOD (200 U/ml) was added to matched samples. The supernatants were iced and centrifuged (2000 g×10 minutes) to remove any remaining suspended cells, and the optical density of the supernatants were read at 550 nm against the matched SOD samples, and the nmoles of SOD-inhibitable superoxide released in 90 minutes were calculated.
# Additional effects of adenosine A2A agonists on adherent human neutropbil oxidative activity. The bioactivity of test compounds WRC-0474[SHA 211], WRC-0470, WRC-0090 and WRC-0018 were evaluated according to the following method modified from Sullivan, G. W. et al., Int. J. Immunopharmacol, 17, 793-803 (1995). Neutrophils (1×10^6/ml from Ficoll-Hypaque separation were incubated for 90 minutes in 1 ml of Hanks balanced salt solution containing 0.1% human serum albumin, cytochrome c (120 μM) and catalase (0.062 mg/ml in the presence and absence of rhTNFα (1 U/ml), WRC-0474[SHA 211], WRC-0470, WRC-0090 and WRC-0018 (3-300 nM), and rolipram (100 nM) in a tissue culture well which had been coated overnight with human fibrinogen. The supernatants were iced and centrifuged (200 g×10 min) to remove any remaining suspended cells, and the optical densities of the supernatants were read at 550 nm against matched superoxide dismutase (SOD) (200 U/ml) samples. The nmoles of SOD=inhabitable superoxide released in 90 min were calculated.
# [3] = test system: TNFα-stimulated adherent neutrophil; assay: PMN degranulation (adherent cells), lysozyme release; format: cell-based, human; conditions: WRC-0470 300 nM with rolipram 300 nM; P=0.027
# Procedure: PMN degranulation (adherent cells). The following methods were adapted from Sullivan, G. W. and G. L. Mandell, Infect. Inumun., 30, 272-280 (1980). […] The supernatant fluids with any suspended neutrophils were harvested following incubation, centrifuged (2000 ×g for 10 min) to remove any suspended cells and the cell-free supernatants frozen. Release of lysozyme, a component of neutrophil primary and secondary granules was assayed. Lysis of a suspension of Micrococcus lysodeikticus by the “cell-free supernatant” was measured by spectrophotometric analysis ([…]) to determine the amount of release of granule contents to the surrounding medium.
# [4] = test system: neutrophils in whole blood; assay: PMN oxidative activity in whole blood; format: cell-based
# Procedure: PMN oxidative activity in whole blood. The following methods were adapted from Rothe, G. A. et al., J. Immunol. Meth., 138, 133-135 (1991). Heparinized whole blood (0.8 ml) was incubated (37°; 30 min) with adenosine deaminase (ADA, 1 U/ml), catalase (14,000 U/ml), ±dihydrorhodamine 123, ±WRC-0470 (3-300 nM), ±rolipram (300 nM) and ±TNFα (10 U/ml). The primed blood samples were stimulated with fMLP (15 min), then iced, the red blood cells lysed with FACS lysing solution (Becton-Dickinson, San Jose, Calif.), washed and the leukocytes resuspended in phosphate-buffered saline (PBS). These samples containing mixed leukocytes were gated for neutrophils by forward and side scatter and the fluorescence of 10,000 neutrophils measured in the FL1 channel of a FACScan (Beckton-Dickinson) fluorescence-activated cell sorter.
# [5] = test system: adherent human monocytes; assay: Production of TNFα by purified human adherent monocytes; format: cell-based
# Procedure: Production of TNFα by purified human adherent monocytes. A monocyte rich monolayer (>95% monocytes) was prepared by incubating 1 ml of the mononuclear leukocyte fraction (5×10^5/ml) from a Ficoll-Hypaque separation in wells of a 24 well tissue culture plate (1 hr; 37° C.; 5% CO2). […] The samples were incubated for 4 hr (37° C.; 5% CO2) and the supernatants harvested. Any suspended cells were removed by centrifugation and the cell-free samples frozen (−70° C.). TNFα was assayed in the cell-free supernatants by an ELISA kit (Cistron Biotechnology, Pine Brook, N.J.).
# [6] = test system: Adult wistar rats; assay: Rat model of inflammation (bacterial meningitis): CSF WBC pleocytosis and blood-brain barrier permeability; format: in vivo
# Procedure: Effects of WRC-0470 and rolipram on the extravasation of white blood cells in a rat model of inflammation. Adult wistar rats (approximately 200 g) were anesthetized with intermuscular injections of ketamine and xylazine. Bacteria meningitis (BM) was introduced via intracistemal inoculation of either E. coli strain 026:B6LPS (200 ng), cytokines (IL-1 and TNFα, or LPS plus cytokines). The animals were then infused with rolipram and/or […] over the duration of the experiment using a Harvard pump. CSF (cerebrospinal fluid) and blood was then sampled at 4 h post-inoculation and alterations in BBBP (blood-brain barrier permeability) and WBC (white blood cell) counts were determined. CSF and WBC concentrations were determined with standard hemacytometer methods. For assessment of % BBBP, rats were given an intravenous injection of 5 μCi 125I-labeled bovine serum albumin concomitant with intracistemal inoculation. Equal samples of CSF and blood were read simultaneously in a gamma counter and after subtraction of background radioactivity, % BBBP was calculated by the following formula: % BBBP=(cpm CSF/cpm blood)×100. All statistical tests were performed using Instat biostatistical software to compare the post-inoculation samples of experimental rats with the control rats. The statistical tests used to generate p-values were Student's t-test and ANOVA.
compound,measurement,setting,value
CCNC(=O)[C@H]1O[C@@H](n2cnc3c(N)nc(NCCc4ccc(CCC(=O)O)cc4)nc32)[C@H](O)[C@@H]1O [CGS21680],TNF-stimulated PMN adherence,"[1]; 30 nM, in the presence of ADA, TNF control 38%, p=0.004",30 % adhered
Nc1nc(OCCc2ccc3ccccc3c2)nc2c1ncn2[C@@H]1O[C@H](CO)[C@@H](O)[C@H]1O [WRC-0018],superoxide release of TNFα-stimulated adherent PMN,[2],synergistically decreased superoxide release
Cc1ccc(CCOc2nc(N)c3ncn([C@@H]4O[C@H](CO)[C@@H](O)[C@H]4O)c3n2)cc1 [WRC-0090],superoxide release of TNFα-stimulated adherent PMN,[2],synergistically decreased superoxide release
Nc1nc(N/N=C/C2CCCCC2)nc2c1ncn2[C@@H]1O[C@H](CO)[C@@H](O)[C@H]1O [WRC-0470],superoxide release of TNFα-stimulated adherent PMN,[2],synergistically decreased superoxide release
same,"rank of activity among the four A2A agonists, adherent PMN oxidative activity",[2]; in the presence of rolipram,most active
same,decrease of TNFα-stimulated adherent neutrophil degranulation,[3],67%
same,neutrophil oxidative activity in whole blood,"[4]; 30-300 nM with rolipram 300 nM, fMLP or TNFα then fMLP",decreased neutrophil oxidative activity synergistically
same,oxidative activity of TNFα-primed fMLP-stimulated neutrophils in whole blood,[4]; FIG. 6,decreased oxidative activity
same,endotoxin-stimulated adherent monocyte production of TNFα,"[5]; ±rolipram, P<0.050, FIGS. 7A and 7B",decreased
same,blood-brain barrier permeability (% BBBP),"[6]; 1.2 μg/kg/hr, rebound effect",returned to control
same,blood-brain barrier permeability (% BBBP),"[6]; 0.01-0.015 μg/kg/hr, p<0.05 as compared to control, FIG. 9",significant response
same,WBC migrated into the sub-arachnoid space (CSF WBC),"[6]; WRC-0470 0.1 μg/kg/hr in combination with rolipram 0.001 μg/kg/hr, FIG. 11",200±70 WBC/μl
same,WBC migrated into the sub-arachnoid space (CSF WBC),"[6]; WRC-0470 alone (0.1 μg/kg/hr), p<0.050 vs combination",600±308 WBCs/μl
same,CSF WBC pleocytosis,"[6]; infusion 0.005-1.2 μg/kg/hr, p<0.05 as compared to control, FIG. 8",inhibited pleocytosis
"Nc1nc(NCCc2ccc(O)cc2)nc2nc(-c3ccco3)nn12 [ZM241385, 4-(2-[7-amino-2-(2-furyl)[1,2,4]-triazolo[2,3a]-[1,3,5]trazinyl-amino]ethyl)-phenol, reference compound]",antagonism of the effect of WRC-0470 (300 nM) combined with rolipram (300 nM) on TNFα release from monocytes,"[5]; ZM241385 50 nM, p=0.020, FIG. 7B",significantly inhibited the effect of WRC-0470
Nc1ncnc2c1ncn2[C@@H]1O[C@H](CO)[C@@H](O)[C@H]1O [adenosine],TNF-stimulated PMN adherence,"[1]; 100 nM, p=0.009 compared to TNF in the presence of ADA",28 % adhered
"COc1ccc(C2CNC(=O)C2)cc1OC1CCCC1 (centres unmarked) [rolipram, 4-(3-cyclopentyloxy-4-methoxyphenyl)-2-pyrrolidone, reference compound]",alterations of BBBP,[6]; 0.002 μg/kg/hr,no significant effect
same,inhibition of CSF pleocytosis,"[6]; 0.01 μg/kg/hr, p<0.05, FIG. 10",99%
same,alterations of BBBP,"[6]; 0.01 or 0.005 μg/kg/hr, p<0.05",significant inhibition
same,WBC migrated into the sub-arachnoid space (CSF WBC),"[6]; rolipram alone (0.001 μg/kg/hr), p<0.050 vs combination","1,670±1,273 WBC/μl"
